Reference: patent publication US7247617B2, “Sixteen-member macrolide antiinfective agents” (Kosan Biosciences Incorporated, priority 2004, dated 2007)

Tests used:
[1] = tested on: S. pneumoniae; experiment: Biological activity against bacterial strains: S. pneumoniae; assay type: cell-based, Streptococcus pneumoniae; design: Biological Activity, S. pneumoniae ATCC6301 / Biological Activity, S. pneumoniae ATCC700671 / Biological Activity, S. pneumoniae ATCC700676* / Biological Activity, S. pneumoniae ATCC700677* / Biological Activity, S. pneumoniae ATCC700905* / Biological Activity, S. pneumoniae ATCC700906* / Biological Activity, S. pneumoniae ATCC49619: unit not given here; settings: for Biological Activity, S. pneumoniae ATCC6301: strain ATCC6301; for Biological Activity, S. pneumoniae ATCC49619: strain ATCC49619; for Biological Activity, S. pneumoniae ATCC700671: strain ATCC700671; for Biological Activity, S. pneumoniae ATCC700676*: strain ATCC700676, macrolide resistant strain; for Biological Activity, S. pneumoniae ATCC700677*: strain ATCC700677, macrolide resistant strain; for Biological Activity, S. pneumoniae ATCC700905*: strain ATCC700905, macrolide resistant strain; for Biological Activity, S. pneumoniae ATCC700906*: strain ATCC700906, macrolide resistant strain
[2] = tested on: E. faecalis; experiment: Biological activity against bacterial strains: E. faecalis; assay type: cell-based, Enterococcus faecalis; settings: strain ATCC51575
[3] = tested on: S. epidermidis; experiment: Biological activity against bacterial strains: S. epidermidis; assay type: cell-based, Staphylococcus epidermidis; settings: strain ATCC12228
[4] = tested on: S. aureus; experiment: Biological activity against bacterial strains: S. aureus; assay type: cell-based, Staphylococcus aureus; design: unit not given here; settings: for Biological Activity, S. aureus ATCC6538p: strain ATCC6538p; for Biological Activity, S. aureus ATCC14154*: strain ATCC14154, macrolide resistant strain; for Biological Activity, S. aureus ATCC29213: strain ATCC29213; for Biological Activity, S. aureus ATCC33591*: strain ATCC33591, macrolide resistant strain; for Biological Activity, S. aureus ATCCBAA-39*: strain ATCCBAA-39, macrolide resistant strain; for Biological Activity, S. aureus ATCCBAA-44*: strain ATCCBAA-44, macrolide resistant strain

Structure (SMILES)	Biological Activity, S. pneumoniae ATCC6301 [1]	Biological Activity, S. pneumoniae ATCC49619 [1]	Biological Activity, S. pneumoniae ATCC700671 [1]	Biological Activity, S. pneumoniae ATCC700676* [1]	Biological Activity, S. pneumoniae ATCC700677* [1]	Biological Activity, S. pneumoniae ATCC700905* [1]	Biological Activity, S. pneumoniae ATCC700906* [1]	Biological Activity, E. faecalis ATCC51575 [2]	Biological Activity, S. epidermidis ATCC12228 [3]	Biological Activity, S. aureus ATCC6538p [4]	Biological Activity, S. aureus ATCC14154* [4]	Biological Activity, S. aureus ATCC29213 [4]	Biological Activity, S. aureus ATCC33591* [4]	Biological Activity, S. aureus ATCCBAA-39* [4]	Biological Activity, S. aureus ATCCBAA-44* [4]
CCC1OC(=O)CC(O)C(C)C(OC2OC(C)C(O)C(N(C)C)C2O)C(CC=O)CC(C)C(=NOCCCOc2ccc3ncccc3c2)C=CC(C)=CC1COC1OC(C)C(O)C(OC)C1OC (single isomer, unassigned) [Compound AA]	0.025	6.25	>12.5	0.049	6.25	6.25	>12.5	>12.5	0.78	0.39	0.78	0.78	>12.5	>12.5	>12.5
CCC1OC(=O)CC(O)C(C)C(OC2OC(C)C(O)C(N(C)C)C2O)C(CC=O)CC(C)C(=NOCCCOc2ccc3ncccc3c2)C=CC(C)=CC1COC1OC(C)C(O)C(OC)C1OC (single isomer, unassigned) [Compound BB]	0.025	0.049	0.049	0.049	0.025	0.025	>12.5	>12.5	0.39	0.2	0.78	0.39	>12.5	>12.5	>12.5
CCC1OC(=O)CC(O)C(C)C(OC2OC(C)C(O)C(N(C)C)C2O)C(CC=O)CC(C)C(=NOCC#Cc2cnc3ccccc3c2)C=CC(C)=CC1CO (single isomer, unassigned) [Compound D]	0.025	0.049	0.049	0.049	>12.5	0.049	>12.5	>12.5	0.20	0.098	0.78	0.39	>12.5	>12.5	>12.5
CCC1OC(=O)CC(O)C(C)C(OC2OC(C)C(O)C(N(C)C)C2O)C(CC=O)CC(C)C(=NOCC=Cc2cnc3ccccc3c2)C=CC(C)=CC1CO (single isomer, unassigned) [Compound F]	0.025	0.025	0.049	0.049	>12.5	0.049	>12.5	>12.5	0.049	0.098	0.39	0.39	>12.5	>12.5	>12.5
